Experimental data published in patent publication US20250263444A1, “vIRF3-Derived Peptide and Use Thereof for Preventing or Treating Cancer” (priority 2022, published 2025).

Experiments:
ATP-citrate lyase (ACLY) = assay: Immunoblotting with anti-acetyl-lysine antibody of LEC stable cell lines treated with ACLY inhibitor; type: cell-based; conditions: LEC lines pCDH, V5-vIRF3, V5-vIRF3(Δ250-280) treated with BMS303141
Protocol: Acetyl-CoA is a crucial metabolite that provides acetyl groups for acetylation reaction of proteins including histone. To better understand the importance of acetyl-CoA upregulation by vIRF3 in LEC, first, it was confirmed whether vIRF3 may increase the overall acetylation level in LEC. To this end, cell lysates were analyzed by immunoblotting (IB) using an anti-acetyl-lysine antibody. […] Especially, cytosolic acetyl-CoA, which was involved in lysine acetylation of protein, regulating the activity, stability, or localization of many cell proteins is primarily generated by the translocation of citrate from the mitochondria to the cytoplasm via ATP-citrate lyase (ACLY). Therefore, three LEC stable cell lines encoding expression vectors of pCDH, V5-vIRF3, and V5-vIRF3(Δ250-280) were treated with an ACLY inhibitor BMS303141 and then analyzed by IB with an anti-acetyl-lysine antibody.

[1] = test system: recombinant KSHV-infected LECs; assay: Xenograft model, subcutaneous peptide administration; type: in vivo, mice
tetrameric form of PKM2 = biological target: T1, tetrameric form of PKM2 (Homo sapiens, UniProt P14618); assay: PKM2 cross-linking and gradient SDS-PAGE immunoblotting; type: cell-based; conditions: LECs expressing vIRF3; FIG. 8B
T1 construct: endogenous in cells; host or cells: E6/E7-immortalised LECs stably expressing V5-vIRF3 by lentivirus (PKM2 endogenous, vIRF3 transduced)
Protocol: 293T cells were infected with indicated combination of plasmids and harvested 48 hours after infection. The cells were lysed with a NP40 lysis buffer supplemented with a protease inhibitor (150 mM NaCl, 0.5% NP40, 50 mM pH 8.0 Tris-HCl) and treated with 0.1% glutaraldehyde for 4 minutes at room temperature. Thereafter, gradient SDS-PAGE was performed with NuPAGE 4-12% Bis-Tris gel (Invitrogen) and analyzed by immunoblotting.

PKM2 [2] = biological target: T2, PKM2 (Homo sapiens, UniProt P14618); assay: Binding of vIRF3-derived peptide fragments to PKM2 (GST-pull down / immunoprecipitation, FIG. 7); set-up: expressed in transfected cells
Description: A pCMV-HA-hPKM2 plasmid was provided by from the Miyagi Cancer Center Research Institute, Natori, Japan. In addition, a vIRF3 (Δ250-280) mutant was generated by sequentially deleting 10 amino acids from alanine 250 using a QuikChange XL site-directed mutagenesis kit (Agilent). Primer pairs used in vIRF3 deletion mutation were as follows: vIRF3(Δ250-260) forward 5′-[…]-3′ (SEQ ID NO: 8), vIRF3(Δ250-260) reverse 5′-[…]-3′ (SEQ ID NO: 9), vIRF3(Δ260-270) forward 5′-[…]-3′ (SEQ ID NO: 10), vIRF3(Δ260-270) reverse 5′-[…]-3′ (SEQ ID NO: 11), vIRF3(Δ270-280) forward 5′-[…]-3′ (SEQ ID NO: 12), and vIRF3(Δ270-280) reverse 5′-[…]-3′ (SEQ ID NO: 13). GST-tagged vIRF3 250-260, 260-270, and 270-280 were subcloned into a pEBG-GST vector with BamHI and NotI restriction sites using the following primers: vIRF3(250-260) forward 5′-[…] GGC-3′ (SEQ ID NO: 14), vIRF3(250-260) reverse 5′-[…] CG-3′ (SEQ ID NO: 15), vIRF3(260-270) forward 5′-GATCCGCCACCAT […]-3′ (SEQ ID NO: 16), vIRF3(260-270) reverse 5′-[…] G-3′ (SEQ ID NO: 17), vIRF3(270-280) forward 5′-[…] GC-3′ (SEQ ID NO: 18), and vIRF3 270-280 reverse 5′-[…] GGCG-3′ (SEQ ID NO: 19).
The indicated cells were infected regardless of the presence or absence of combination of plasmids. […] Cell lysates were immunoprecipitated against indicated proteins and analyzed by immunoblotting according to methods known in the art.

LEC-V5-vIRF3 = assay: Chorioallantoic membrane (CAM) invasion assay; type: in vivo, chick; conditions: 0.2 mg peptide at 24 and 48 hours after cell seeding; IHC; FIG. 8D
Protocol: The chick fertilized eggs were incubated at 37.5° C. with 70% humidified atmosphere in a Rcom D-50 incubator (Autoelex). After embryonic day (ED) 5, a 1.5 cm square hole was opened on the eggshell and sealed with a sterile parafilm tape. Embryos were monitored by daily candling. On ED 10, sterile silicone rings were placed onto the CAM of the embryo and added with indicated cells, and then the cells were seeded. 0.2 mg of TAT (a control peptide containing only a TAT sequence of HIV-1 (synthesized by Bionics)) or TAT-VDP according to the present invention (vRIF3-derived aa250-260 peptide bound with a TAT sequence (synthesized by Bionics)) was treated at 24 and 48 hours after cell seeding. Approximately 1 cm^2 of CAM around the silicone ring was harvested and fixed with 4% paraformaldehyde at 4° C. for 24 hours. Thereafter, samples were treated for immunohistochemistry and Hematoxyling and Eosin (H&E) staining.

PKM2 [3] = biological target: T2, PKM2; assay: Pyruvate kinase activity assay in LECs treated with TAT or TAT-VDP; type: cell-based; set-up: endogenous in cells; host or cells: E6/E7-immortalised LECs (LEC-V5-vIRF3 or LEC-vector); conditions: LEC-V5-vIRF3 cells; VDP fused to HIV-1 TAT; FIG. 8C
Protocol: Pyruvate kinase activity assay was performed with a Pyruvate Kinase Assay Kit (Sigma Aldrich) according to manufacturer's instructions. Briefly, LECs expressing a pCDH vector, vIRF3, and vIRF3(Δ250-280), respectively were harvested and washed twice with 1×PBS. The cells were suspended in 50 μl of a pyruvate kinase assay buffer and incubated for 15 minutes. Cell debris was removed by centrifugation at 13,000 rpm for 15 minutes. The supernatant was transferred to a 96-well plate and added with a kinase assay mixture. Absorbance was measured at 570 nm wavelength using a Varioskan Lux microplate reader (Thermo scientific).

T2 sequence (P14618 whole entry, the tested form may be a part): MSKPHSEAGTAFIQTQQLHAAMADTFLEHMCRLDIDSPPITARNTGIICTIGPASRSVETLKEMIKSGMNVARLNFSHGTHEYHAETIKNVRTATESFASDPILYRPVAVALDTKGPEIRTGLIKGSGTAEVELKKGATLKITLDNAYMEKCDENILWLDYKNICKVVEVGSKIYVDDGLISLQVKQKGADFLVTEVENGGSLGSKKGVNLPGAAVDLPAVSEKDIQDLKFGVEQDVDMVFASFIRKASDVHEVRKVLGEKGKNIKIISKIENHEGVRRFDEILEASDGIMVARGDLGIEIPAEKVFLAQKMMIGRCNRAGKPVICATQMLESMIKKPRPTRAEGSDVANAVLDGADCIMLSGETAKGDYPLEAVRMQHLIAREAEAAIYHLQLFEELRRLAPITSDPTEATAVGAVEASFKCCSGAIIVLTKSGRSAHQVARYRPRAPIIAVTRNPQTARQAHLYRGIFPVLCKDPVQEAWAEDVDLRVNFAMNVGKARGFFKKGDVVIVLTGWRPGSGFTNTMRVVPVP
T1 sequence (P14618 2-531 limits assumed): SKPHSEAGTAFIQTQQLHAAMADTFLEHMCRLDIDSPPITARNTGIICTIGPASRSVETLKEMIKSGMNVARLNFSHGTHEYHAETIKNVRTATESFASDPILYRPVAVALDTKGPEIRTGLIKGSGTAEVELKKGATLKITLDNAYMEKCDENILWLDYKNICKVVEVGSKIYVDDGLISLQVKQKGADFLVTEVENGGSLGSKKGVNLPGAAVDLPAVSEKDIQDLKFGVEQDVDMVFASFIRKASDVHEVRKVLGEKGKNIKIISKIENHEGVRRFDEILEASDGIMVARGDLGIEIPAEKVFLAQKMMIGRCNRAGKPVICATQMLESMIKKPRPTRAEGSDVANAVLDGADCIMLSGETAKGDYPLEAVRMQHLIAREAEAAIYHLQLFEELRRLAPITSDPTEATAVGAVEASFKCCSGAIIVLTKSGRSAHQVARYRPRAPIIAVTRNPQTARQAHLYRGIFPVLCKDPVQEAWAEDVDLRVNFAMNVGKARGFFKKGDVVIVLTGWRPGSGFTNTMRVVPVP

COc1ccc(-c2ccccc2)cc1NS(=O)(=O)c1cc(Cl)cc(Cl)c1O [BMS303141]
increase of total acetylation levels by vIRF3 (ATP-citrate lyase (ACLY)): the increase of total acetylation levels was not confirmed

TAT-VDP: vRIF3-derived aa250-260 peptide bound with a TAT sequence of HIV-1 for intracellular delivery (synthesized by Bionics) (RRRQRRKKRGYGEQGVHYMLACA)
tumor formation ([1]; 0.2 mg peptide twice per week for 30 days, subcutaneous, FIG. 8E): remarkably inhibited
vIRF3-mediated tetrameric form of PKM2 (tetrameric form of PKM2): sufficiently prevented

vIRF3(260-270): fragment peptide of amino acids 260-270 of KSHV vIRF3 (SEQ ID NO: 4) (EMDMLMRAMCD)
binding to PKM2 (PKM2 [2]): mutual-bound to PKM2

vIRF3(270-280): fragment peptide of amino acids 270-280 of KSHV vIRF3 (SEQ ID NO: 5) (DEDLFDLLGIP)
binding to PKM2 (PKM2 [2]): mutual-bound to PKM2

vIRF3-derived peptide: vIRF3-derived peptide of SEQ ID NO: 1, included within aa 250-280 of KSHV vIRF3 (ACALMYHVGQEMDMLMRAMCDEDLFDLLGIP)
invasion of LEC-V5-vIRF3 in CAM (invasive activity) (LEC-V5-vIRF3): significantly inhibited
size and volume of tumor ([1]; subcutaneous injection, animal model transplanted with LECs infected with KSHV): significantly reduced
PK activity upregulated by vIRF3 expression (PKM2 [3]): significantly inhibited
